Experimental findings from patent US20050002991A1, “Prophylactic agent of hypertension containing a conjugated fatty acid as an effective ingredient and the use thereof” (RINORU OIL MILLS CO., LTD., priority 2003, published 2005) are described below.

Marks after values point to notes of the source that are not given here.

This experiment has as its system OLETF rats. Description: Systolic blood pressure of OLETF rats fed CLA-supplemented diet (indirect tail cuff method). The class given is in vivo, rat. The note with it: male OLETF rats; for Blood pressure, initial value / Blood pressure, 1 Week / Blood pressure, 2 Weeks / Blood pressure, 3 Weeks: systolic; for Blood pressure, initial value: baseline before feeding the diet supplemented with 0.5% of the substance; for Blood pressure, 1 Week / Blood pressure, 2 Weeks / Blood pressure, 3 Weeks: diet supplemented with 0.5% of the substance; for Blood pressure, 1 Week: 1 week of feeding; for Blood pressure, 2 Weeks: 2 weeks of feeding; for Blood pressure, 3 Weeks: 3 weeks of feeding; for Systolic blood pressure compared with control group (in words): 0.5% in diet, up to 3 weeks, control = high linoleic safflower oil. From the text: Male OLETF rats (7 weeks old), an animal model of non-insulin dependent diabetes mellitus, were assigned to three groups that were fed ad libitum with a semisynthetic diet (AIN-76) supplemented with 0.5% high linoleic safflower oil (Rinoru Oil Mills Co., Ltd.; control group), or a semisynthetic diet supplemented with 0.5% 9cis,11trans-CLA, and a semisynthetic diet supplemented with 0.5% 10trans,12cis-CLA for three weeks. […]
It has been found from the above-described results that systolic blood pressure is lowered in rats fed with the 10trans, 12cis-CLA.

For the compound `CCCCCC/C=C/C=C\CCCCCCCC(=O)O` [9cis, 11trans-CLA, 9cis,11trans-CLA], the “Blood pressure, initial value” is 103 ± 3 mmHg; the “Blood pressure, 1 Week” value worked out at 131 ± 3 mmHg; the “Blood pressure, 2 Weeks” value was 148 ± 4^a mmHg; the “Blood pressure, 3 Weeks” value was 154 ± 4^a mmHg.
For the compound `CCCCC/C=C\C=C\CCCCCCCCC(=O)O` [10trans, 12cis-CLA, 10trans,12cis-CLA], the “Systolic blood pressure compared with control group (in words)” value was “lowered”; the “Blood pressure, initial value” is 106 ± 4 mmHg; the “Blood pressure, 1 Week” value worked out at 125 ± 6 mmHg; the “Blood pressure, 2 Weeks” value is reported as 128 ± 5^b mmHg. The “Blood pressure, 3 Weeks” value is given as 132 ± 3^b mmHg. Besides, the “Systolic blood pressure compared with control group (in words)” value (listed as 10trans,12cis-CLA) is “significantly suppressed”.
Consider conjugated linoleic acid [CLA], for which the “Systolic blood pressure compared with control group (in words)” value is “tends to lower”.
